Read-outs that look alike come from different tables or passages of the source.
How the values were obtained:
OVCAR3 cells [1] = experiment: Detection of OVCAR3 cell proliferation activity by CTG method; format: cell-based; details: Homo sapiens, OVCAR-3, 168 h, CellTiter-Glo, 7 days
From the text: (§1) This assay can be used to examine the potency of compounds in inhibiting the proliferation of tumor cells (OVCAR3, HT-29, BT-549, HCT-116). A lower IC50 value indicates high potency of the compound as a KIF18A inhibitor in the following assay setup,
1640 medium; fetal bovine serum; penicillin/streptomycin antibiotics purchased from Wisent; CellTiter-Glo (chemiluminescence detection reagent for cell viability) reagent purchased from Promega; OVCAR3 cell line purchased from Nanjing Cobioer Biosciences Co., Ltd.; Nivo multimode microplate reader (PerkinElmer),
OVCAR3 cells were seeded into a white 96-well plate, with 80 μL of cell suspension containing 2000 OVCAR3 cells added to each well. The cell plate was incubated in a CO2 incubator overnight.
A test compound was 5-fold diluted to the 8th concentration (i.e., from 2 mM to […]) using a multichannel pipette, with duplicate wells set up. To an intermediate plate was added 78 μL of medium, and the serially diluted compound was transferred to the corresponding wells of the intermediate plate at 2 μL/well. The mixture was mixed well and then transferred to the cell plate at 20 μL/well. The concentration of the compound transferred to the cell plate ranged from 10 μM to 0.026 nM. The cell plate was incubated in a CO2 incubator for 7 days. Another cell plate was prepared and read for signal values on the day of compound addition, and these values were used as the maximum values (the Max value in the equation below) in data analysis. To this cell plate was added the chemiluminescence detection reagent for cell viability at 25 μL/well, and the luminescence signals were stabilized by incubation at room temperature for 10 min. Readings were taken using the multimode microplate reader.
To the cell plate was added the chemiluminescence detection reagent for cell viability at 25 μL/well, and the luminescence signals were stabilized by incubation at room temperature for 10 mm. Readings were taken using the multimode microplate reader, […]

HT-29 cells [2] = experiment: Detection of cell proliferation activity by CCK8 method (HT-29); format: cell-based, human; details: Homo sapiens, CCK8, 96 h
From the text: as §1
(§2) McCoy's 5A medium purchased from Sangon Biotech; CCK8 kit purchased from Beyotime; OVCAR3, HT-29, HCT-116, and BT-549 cells purchased from Shanghai Fuheng Biotechnology Co., Ltd.; multimode microplate reader (Thermo).
(§3) Cells at the logarithmic growth phase were taken, digested with a cell lysis buffer (trypsin), centrifuged, counted, and seeded into a 96-well plate at an appropriate cell density (BT549: 1500 cells/well in 1640 medium. HT-29 and HCT-116: 2000 cells/well in McCoy's 5A medium), with 180 μL per well, for a total of 60 wells. The surrounding wells were filled with an equal amount of PBS to prevent water evaporation from the edge wells. The next day after cell plating, the test compounds at different concentration gradients (with an initial final concentration of 10 μM, diluted in a 1:5 gradient to obtain 9 concentration gradients) were added to the wells. Three replicate wells were set up for each concentration point, and a corresponding DMSO negative control group was also set up. Detection: After 96 h of drug treatment, the test cell culture plate was removed from the incubator. All the liquid in the 96-well plate was aspirated, and 100 μL of medium containing 10% CCK8 solution was added to each well. The plate was then incubated at 37° C. for 2 h (the OD450 of the DMSO group reached 1.5 or more), and the absorbance at 450 nm was measured using a microplate reader
(§4) After the background value was subtracted from the measurement for each well, the inhibition rate was calculated. Inhibition Rate (%)=(1−Sample/Vehicle)×100. Sample is the luminescence value of the drug treatment group, and Vehicle is the luminescence value of the DMSO control group. A sigmoidal dose-survival rate curve was plotted using a non-linear regression model in the GraphPad Prism 7.0 software, and the IC50 values were calculated.

HCT-116 cells [3] = experiment: Mitotic index analysis, pH3 expression in HCT-116 cells; format: cell-based; details: 24 h treatment
Description: (§5) HCT-116 and HT-29 cells at the logarithmic growth phase were taken, digested with a cell lysis buffer (trypsin), centrifuged, counted, and seeded into a 96-well plate at an appropriate cell density (20000 cells/well), with 100 μL per well. The surrounding wells were filled with an appropriate amount of PBS to prevent water evaporation. The next day, the cells were treated with the compounds at different concentrations (with a starting concentration of 10 μM, 3-fold diluted to obtain 9 concentration gradients). After 24 h, the medium was aspirated, and the cells were washed twice with 100 μL of PBS. The cells were then fixed with 4% paraformaldehyde and incubated at room temperature for 15 min. The fixative solution was discarded, and the cells were washed with PBS. Then, 150 μL of specialized blocking solution (containing 1% Triton-100) was added to each well for blocking at room temperature for 2 h, and the plate was washed with PBS to remove excess blocking solution. Anti-phistone H3 (pH3) was diluted at a ratio of 1:1000 with a blocking solution containing 0.033% Triton-100, and a blank control group was set up. Then, incubation was performed at 4° C. overnight. The next day, the plate was washed twice with 1×PBST. Anti-rabbit-IgG (H+L) (CST) and DRAQ5 (Thermofisher) were each diluted at an appropriate ratio with a blocking solution containing 0.033% Triton-100 (secondary antibody: 1:2000; DRAQ5: 1:10000). Then, incubation was performed at room temperature for 2 h. The plate was washed twice with 1×PBST and once with PBS. Fluorescence signals at 700 nm and 800 nm were detected using a Li—COR Odyssey two-color near-infrared laser imager. Calculation was performed as follows: pH3 expression (%)=(Cmpd dose/DMSO control)×100. Cmpd dose is the value of the drug treatment group, and DMSO control is the value of the DMSO control group. The EC50 values were determined by fitting using the GraphPad Prism 7.0 software.

OVCAR3 cells [4] = experiment: Detection of cell proliferation activity by CCK8 method (OVCAR3); format: cell-based
From the text: as §1, §2, §3, §4

HCT-116 cells [5] = experiment: Detection of cell proliferation activity by CCK8 method (HCT-116); format: cell-based; details: CCK8, 96 h
From the text: as §1, §2, §3, §4

BT-549 cells = experiment: Detection of cell proliferation activity by CCK8 method (BT-549); format: cell-based; details: CCK8, 96 h
From the text: as §1, §2, §3, §4

HT-29 cells [6] = experiment: Mitotic index analysis, pH3 expression in HT-29 cells; format: cell-based, human; details: Homo sapiens, 24 h treatment
Description: as §5

[7] = Pharmacokinetic test in mice; format: in vivo; details: BALB/c mice; for AUC / Cmax / half-life: mouse, plasma; for half-life: read-out: t½ (converted)
Description: In this example, the pharmacokinetic behavior of the compounds after intravenous injection (IV) and intragastric (PO) administration in BALB/c mice was tested.
On the day of administration, mice were weighed for actual body weight and the administration volume was calculated. Each compound was tested in two groups with 9 mice in each group; one group was subjected to administration by single intravenous injection, and the other group of mice was subjected to single intragastric administration. Whole blood samples were collected via the orbit at prescribed time points (0.25 h, 0.5 h, 1 h, 2 h, 4 h, 8 h, and 24 h after administration). After blood sample collection, the samples were immediately transferred to labeled commercial sample tubes containing K2-EDTA (0.85-1.15 mg), followed by centrifugation (3200×g, 4° C., 10 min) and plasma collection. The plasma was transferred to a pre-cooled centrifuge tube, frozen in dry ice, and then stored in an ultra-low temperature freezer at −60° C. or lower until the LC-MS/MS analysis.
Plasma concentrations were determined by the LC-MS/MS method. Plasma drug concentration data for the compounds were processed using a non-compartmental model in the WinNonlin Version 6.3 (Pharsight, Mountain View, CA) pharmacokinetic software. The relevant pharmacokinetic parameters were calculated by a linear-log trapezoidal method.

KIF18A = KIF18A (Homo sapiens (Human), UniProt Q8NI77); experiment: KIF18A enzymatic activity inhibition, ADP-Glo kit; format: biochemical; details: 4 nM KIF18A, 30 μM ATP
Chain of KIF18A (Q8NI77 1-467): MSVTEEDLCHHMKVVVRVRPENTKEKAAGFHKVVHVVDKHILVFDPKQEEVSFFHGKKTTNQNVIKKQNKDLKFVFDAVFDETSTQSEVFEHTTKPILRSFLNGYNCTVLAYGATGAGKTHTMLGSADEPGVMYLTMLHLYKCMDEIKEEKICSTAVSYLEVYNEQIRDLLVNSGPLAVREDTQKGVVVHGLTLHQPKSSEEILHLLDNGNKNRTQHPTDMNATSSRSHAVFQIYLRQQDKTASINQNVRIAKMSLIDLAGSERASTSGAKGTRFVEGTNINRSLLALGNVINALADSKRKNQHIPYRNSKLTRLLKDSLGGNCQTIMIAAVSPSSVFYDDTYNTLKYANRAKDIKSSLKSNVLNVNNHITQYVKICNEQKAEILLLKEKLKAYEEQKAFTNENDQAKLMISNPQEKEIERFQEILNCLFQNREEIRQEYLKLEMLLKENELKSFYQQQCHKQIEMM
Description: In this experiment, an ADP-Glo kit was used to detect the inhibitory activity of the compounds against KIF18A. Each compound was prepared into a 10 mM stock solution with DMSO, which was then diluted at 1:5 to obtain 9 gradients with the initial final concentration set at 10 μM. Meanwhile, a control group and a blank group were also set up. The reaction buffer consisted of 15 mM Tris (pH 7.5), 10 mM MgCl2, and 0.01% Pluronic F-68. 4 nM KIF18A (1467) and the test compound were added to a 384-well plate and incubated at 37° C. for 20 mm. Then, 30 μM ATP was added to initiate the enzymatic reaction, and the plate was incubated at room temperature for 15 min. Finally, the ADP-Glo reagent was added to detect the luminescence intensity, where the luminescence intensity is directly proportional to the ADP content. Inhibition rate (%)=[…]. Sample signal is the value of the compound group, and DMSO signal is the value of the DMSO control group. Then, the inhibition rate at each concentration was calculated, and the IC50 was determined by fitting using the GraphPadPrism 7.0 software.

[8] = Homo sapiens, OVCAR-3, CCK8, 96 h

IC50 (OVCAR3 cells [1]) [nM]	IC50 (HT-29 cells [2]) [nM]	EC50 (HCT-116 cells [3]; Homo sapiens) [µM]	IC50 (OVCAR3 cells [4]; [8]) [nM]	IC50 (HCT-116 cells [5]; Homo sapiens) [µM]	IC50 (BT-549 cells; Homo sapiens) [nM]	EC50 (HT-29 cells [6]) [nM]	Structure (SMILES)	further results
5220							O=C(Nc1nc(N2CCC(F)(F)CC2)nc2ccccc12)c1ccc(NS(=O)(=O)CCO)cc1N1CCC2(CC1)CC2 [Compound 2]	
75	84.2	> 10	53.3	> 10	118	58.5	CS(=O)(=O)Nc1ccc(C(=O)Nc2cc3cccnc3c(N3CCC(F)(F)CC3)n2)c(N2CC3CCC(C3)C2)c1 [Compound 33]	F ([7]; PO @30mpk): 108%; AUC ([7]; 30 mg/kg, PO @30mpk): 126 µM·h; Cmax ([7]; 30 mg/kg, PO @30mpk): 6.31 µM; half-life ([7]; 30 mg/kg, PO @30mpk): 5.58 days
	141	> 10	66.6	> 10	330	72.4	CS(=O)(=O)Nc1ccc(C(=O)Nc2cc3nccnc3c(N3CCC(F)(F)CC3)n2)c(N2CC3CCC(C3)C2)c1 [Compound 72]	F ([7]; PO @5mpk): 175%; AUC ([7]; 5 mg/kg, PO @5mpk): 66.3 µM·h; Cmax ([7]; 5 mg/kg, PO @5mpk): 5.34 µM; half-life ([7]; 5 mg/kg, PO @5mpk): 0.25 days
2010							Cc1cc2nc(NC(=O)c3ccc(NS(=O)(=O)CCO)cc3N3CCC4(CC3)CC4)nc(N3CCC(F)(F)CC3)c2s1 [Compound 7]	
29.9	45.3	> 10	22.4	> 10	46.1	61.8	CS(=O)(=O)Nc1ccc(C(=O)Nc2cc3cccnc3c(N3CCC(F)(F)CC3)n2)c(N2CCC3(CC2)CC3)c1 [Compound 32]	
64.2	73.9	> 10	30.4	> 10	105	47.6	O=C(Nc1cn2ccnc2c(N2CC3CCC(C3)C2)n1)c1ccc(NS(=O)(=O)CCO)cc1N1CCC2(CC1)CC2 [Compound 30]	
							O=C(Nc1cn2ccnc2c(N2CCC(F)(F)CC2)n1)c1ncc(NS(=O)(=O)CCO)cc1N1CCC2(CC1)CC2 [Compound 37]	IC50 (KIF18A): 11.3 nM; EC50 (HCT-116 cells [3]): > 10 µM; IC50 (OVCAR3 cells [4]; CCK8, 96 h): 234 nM; IC50 (HCT-116 cells [5]): > 10 µM; IC50 (BT-549 cells): 611 nM
167							O=C(Nc1csc(C2CCC(F)(F)CC2)n1)c1ccc(NS(=O)(=O)CCO)cc1N1CCC2(CC1)CC2 [Compound 1]	

Reference: US20250382298A1, “NITROGEN-CONTAINING COMPOUND AND USE THEREOF” (SUZHOU GENHOUSE BIO CO., LTD., priority 2022, published 2025)
